System: 354836-022-R-J1-PDC multicell spheroid viability
Experiment: Anticancer human tumor 354836-022-R-J1-PDC patient-derived head and neck squamous cell carcinoma cell line growth inhibition [PI3K]
Conditions: for IC50: curve of first compound; for viability, T/C: stronger effect = lower value
In short: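 Combination activity was assessed by viability in multicellular tumor spheroids carrying HUVEC and MSC components. Agents were tested with PI3K inhibitors from a Cmax-based top dose (or 10 microM) downward in half-log increments.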

[1] = second compound 0.0316 µM, first compound 0.0316 µM
[2] = second compound 0.0316 µM, first compound 0.1 µM
[3] = second compound 0.0316 µM, first compound 0.316 µM
[4] = second compound 0.0316 µM, first compound 1 µM
[5] = second compound 0.0316 µM, first compound 3.16 µM
[6] = second compound 0.0316 µM, first compound 10 µM
[7] = second compound 0.1 µM, first compound 0.0316 µM
[8] = second compound 0.1 µM, first compound 0.1 µM
[9] = second compound 0.1 µM, first compound 0.316 µM
[10] = second compound 0.1 µM, first compound 1 µM
[11] = second compound 0.1 µM, first compound 3.16 µM
[12] = second compound 0.1 µM, first compound 10 µM
[13] = second compound 0.316 µM, first compound 0.0316 µM
[14] = second compound 0.316 µM, first compound 0.1 µM
[15] = second compound 0.316 µM, first compound 0.316 µM
[16] = second compound 0.316 µM, first compound 1 µM
[17] = second compound 0.316 µM, first compound 3.16 µM
[18] = second compound 0.316 µM, first compound 10 µM
[19] = second compound 1 µM, first compound 0.0316 µM
[20] = second compound 1 µM, first compound 0.1 µM
[21] = second compound 1 µM, first compound 0.316 µM
[22] = second compound 1 µM, first compound 1 µM
[23] = second compound 1 µM, first compound 3.16 µM
[24] = second compound 1 µM, first compound 10 µM
[25] = second compound 3.16 µM, first compound 0.0316 µM
[26] = second compound 3.16 µM, first compound 0.1 µM
[27] = second compound 3.16 µM, first compound 0.316 µM
[28] = second compound 3.16 µM, first compound 1 µM
[29] = second compound 3.16 µM, first compound 3.16 µM
[30] = second compound 3.16 µM, first compound 10 µM
[31] = second compound 10 µM, first compound 0.0316 µM
[32] = second compound 10 µM, first compound 0.1 µM
[33] = second compound 10 µM, first compound 0.316 µM
[34] = second compound 10 µM, first compound 1 µM
[35] = second compound 10 µM, first compound 3.16 µM
[36] = second compound 10 µM, first compound 10 µM
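Note: spheroids exposed to agents for seven days before the viability read.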

Molecule CNC(=O)c1ccc(N2C(=S)N(c3ccc(C#N)c(C(F)(F)F)c3)C(=O)C2(C)C)cc1F + Cc1nc(NC(=O)N2CCCC2C(N)=O)sc1-c1ccnc(C(C)(C)C(F)(F)F)c1 has an IC50 (second compound 0.0316 µM) greater than 10000 nM, an IC50 (second compound 0.1 µM) greater than 10000 nM and an IC50 (second compound 0.316 µM) greater than 10000 nM. The IC50 (second compound 1 µM) was greater than 10000 nM, the IC50 (second compound 3.16 µM) was greater than 10000 nM and the IC50 (second compound 10 µM) was less than 31.6 nM. For the same molecule, the viability, T/C [1] was 108%, the viability, T/C [2] was 92.4% and the viability, T/C [3] was 100%. It also gave a viability, T/C [4] of 96%, a viability, T/C [5] of 123% and a viability, T/C [6] of 108%. It also gave a viability, T/C [7] of 95.5%, a viability, T/C [8] of 93.4% and a viability, T/C [9] of 111%. It also gave a viability, T/C [10] of 87.9%, a viability, T/C [11] of 109% and a viability, T/C [12] of 99.2%. The viability, T/C [13] was 86.8%, the viability, T/C [14] was 99.6% and the viability, T/C [15] was 89.1%. It also gave a viability, T/C [16] of 96.7%, a viability, T/C [17] of 98.2% and a viability, T/C [18] of 88%. The viability, T/C [19] was 93.5%, the viability, T/C [20] was 84.5% and the viability, T/C [21] was 76.3%. For the same molecule, the viability, T/C [22] was 98.7%, the viability, T/C [23] was 87% and the viability, T/C [24] was 82.4%. For the same molecule, the viability, T/C [25] was 54.5%, the viability, T/C [26] was 71.1% and the viability, T/C [27] was 63.3%. The viability, T/C [28] was 71.3%, the viability, T/C [29] was 68% and the viability, T/C [30] was 72.1%. For the same molecule, the viability, T/C [31] was 35.1%, the viability, T/C [32] was 35% and the viability, T/C [33] was 35.7%. For the same molecule, the viability, T/C [34] was 39.8%, the viability, T/C [35] was 48.9% and the viability, T/C [36] was 37.5%.
CC(Cn1ccc(-c2ccc(C#N)c(Cl)c2)n1)NC(=O)c1cc(C(C)O)[nH]n1 (stereo unspecified) + CC(Nc1ncnc2nc[nH]c12)c1cc2cccc(Cl)c2c(=O)n1-c1ccccc1 showed an IC50 (second compound 0.0316 µM) greater than 10000 nM, an IC50 (second compound 0.1 µM) greater than 10000 nM and an IC50 (second compound 0.316 µM) greater than 10000 nM. For the same molecule, the IC50 (second compound 1 µM) was greater than 10000 nM, the IC50 (second compound 3.16 µM) was greater than 10000 nM and the IC50 (second compound 10 µM) was greater than 10000 nM. It also gave a viability, T/C [1] of 99.3%, a viability, T/C [2] of 91.8% and a viability, T/C [3] of 96.6%. It also gave a viability, T/C [4] of 112%, a viability, T/C [5] of 97.7% and a viability, T/C [6] of 84.4%. For the same molecule, the viability, T/C [7] was 87.8%, the viability, T/C [8] was 102% and the viability, T/C [9] was 89.6%. For the same molecule, the viability, T/C [10] was 104%, the viability, T/C [11] was 85% and the viability, T/C [12] was 93.3%. For the same molecule, the viability, T/C [13] was 91.2%, the viability, T/C [14] was 90.6% and the viability, T/C [15] was 97.6%. The viability, T/C [16] was 87.9%, the viability, T/C [17] was 101% and the viability, T/C [18] was 89.1%. For the same molecule, the viability, T/C [19] was 106%, the viability, T/C [20] was 91.4% and the viability, T/C [21] was 93.1%. For the same molecule, the viability, T/C [22] was 108%, the viability, T/C [23] was 83.5% and the viability, T/C [24] was 78.8%. It also gave a viability, T/C [25] of 113%, a viability, T/C [26] of 96.8% and a viability, T/C [27] of 95%. For the same molecule, the viability, T/C [28] was 97.2%, the viability, T/C [29] was 90.7% and the viability, T/C [30] was 83.7%. The viability, T/C [31] was 96.5%, the viability, T/C [32] was 93.2% and the viability, T/C [33] was 83.8%. It also gave a viability, T/C [34] of 96.9%, a viability, T/C [35] of 95.2% and a viability, T/C [36] of 75.7%.
Work on CC(C)NCC(C(=O)N1CCN(c2ncnc3c2C(C)CC3O)CC1)c1ccc(Cl)cc1 (stereo unspecified) + Cc1nc(NC(=O)N2CCCC2C(N)=O)sc1-c1ccnc(C(C)(C)C(F)(F)F)c1 yielded an IC50 (second compound 0.0316 µM) of 240 nM, an IC50 (second compound 0.1 µM) of 221 nM and an IC50 (second compound 0.316 µM) of 225 nM. For the same molecule, the IC50 (second compound 1 µM) was 401 nM, the IC50 (second compound 3.16 µM) was 116 nM and the IC50 (second compound 10 µM) was less than 31.6 nM. It also gave a viability, T/C [1] of 96%, a viability, T/C [2] of 64.5% and a viability, T/C [3] of 50.7%. It also gave a viability, T/C [4] of 22.4%, a viability, T/C [5] of 18.8% and a viability, T/C [6] of 12.2%. It also gave a viability, T/C [7] of 78.9%, a viability, T/C [8] of 57.3% and a viability, T/C [9] of 51.4%. The viability, T/C [10] was 24%, the viability, T/C [11] was 17.5% and the viability, T/C [12] was 10.2%. For the same molecule, the viability, T/C [13] was 79.3%, the viability, T/C [14] was 65% and the viability, T/C [15] was 42%. The viability, T/C [16] was 29%, the viability, T/C [17] was 16.8% and the viability, T/C [18] was 6.96%. The viability, T/C [19] was 59.7%, the viability, T/C [20] was 73.8% and the viability, T/C [21] was 54.1%. For the same molecule, the viability, T/C [22] was 27.9%, the viability, T/C [23] was 18.5% and the viability, T/C [24] was 6.41%. The viability, T/C [25] was 53.7%, the viability, T/C [26] was 53.2% and the viability, T/C [27] was 40.2%. The viability, T/C [28] was 22.7%, the viability, T/C [29] was 13.2% and the viability, T/C [30] was 6.1%. For the same molecule, the viability, T/C [31] was 34.4%, the viability, T/C [32] was 32% and the viability, T/C [33] was 24.8%. For the same molecule, the viability, T/C [34] was 13.5%, the viability, T/C [35] was 8.39% and the viability, T/C [36] was 4.1%.

— PubChem BioAssay AID1963981 (Molecular Pharmacology Branch, DTP, NCI, 2024)
